US10751288B2, “Dry processed surface coated engineering excipients” (New Jersey Institute of Technology, priority 2016, dated 2020)
Read-outs that look alike come from different tables or passages of the source.

Tests used:
[1] = Particle size distribution by laser diffraction (Rodos/Helos); assay type: physicochemical; conditions: for median particle size (D50): starting materials
Experimental: Unless noted otherwise, particle size distribution provided herein is volume based particle size distribution was measured by a laser diffraction particle analyzer (Rodos/Helos system, Sympatec, NJ). Size statistics in terms of d10, d50 and d90 are reported, which are the values of the particle diameter at 10%, 50% and 90% respectively in the cumulative volumetric particle size distribution. In the Rodos/Helos system, the Rodos device works by venturi principle to disperse the powder, and the Helos unit uses laser diffraction principles of Fraunhofer Enhanced Evaluation (FREE) and Mie Extended Evaluation (MIEE) theories of light scattering to determine the particle size. Size statistics of d10, d50 and d90 at dispersion pressure of 0.1 bar are reported utilizing the FREE theory, the details for which can be found in Han et al. “Passivation of high surface energy sites of milled ibuprofen crystals via dry coating,” Journal of Pharmaceutical Sciences, Vol. 102(7), 1-15 (2013) and Jallo et al. “Improvement of flow and bulk density of pharmaceutical powders using surface modification,” International Journal of Pharmaceutics, 423 213-225 (2012).

[2] = Conditioned bulk density, Freeman FT4 powder tester; assay type: physicochemical; conditions: Example 20, APIs alone
Experimental: Unless otherwise noted, bulk density and flowability, i.e., flow function coefficient (FFC), as provided herein is obtained using a Freeman FT4 powder tester (Freeman Technologies Ltd., Worcestershire, UK), where the bulk density and the flow function coefficient (FFC) were defined as the ratio of consolidation stress to the unconfined yield stress. The FFC was evaluated from a shear test under the consolidation pressure of 3 kPa. Detailed procedures for both may be found in Freeman et al., Measuring the flow properties of consolidated, conditioned and aerated powders—A comparative study using a powder rheometer and a rotational shear cell. […]
Bulk density was measured through a standard FT4 testing procedure that first conditions the powder to yield very repeatable results for the bulk density as discussed in the detailed procedures of Freeman, et al. mentioned above. […] The conditioned bulk density was measured by loading the powder samples into the 25 ml split vessel above the minimum fill level. After a conditioning cycle was performed the vessel was split to remove the top portion of the powder; the density was determined from the mass of the remaining powder in the 25 ml vessel.
In addition to measuring the porosity of the tablets, the porosity of a powder sample, and its complement, packing fraction can be also determined as follows. […]

[3] = Flow function coefficient (FFC), FT4 shear test at 3 kPa; assay type: physicochemical; conditions: Example 20, APIs alone
[4] = True (apparent particle) density by helium pycnometer; assay type: physicochemical; conditions: Table 1
Experimental: First, the apparent particle density, […]app, for each powder (also referred to as the gas pycnometric and true density of particles) was determined using a helium multipycnometer (Model MVP-6DC, Quantachrome instruments, FL, 33426, USA; repeated five time to get an average). After this is determined, the porosity of each tablet (ε) was calculated from the apparent particle density (ρapp) and the diameter (D), thickness (t) and weight (w) of the tablets using the following equation. All quantities are in SI units.

[5] = from Huang et al., 2015; cited from earlier work
[6] = from Huang et al., 2015; cited from earlier work; remark: listed apart in the source
[7] = as-received commercial materials, Table 1

Row | SMILES | median particle size (D50) [1] [microns] | bulk density [2] [g/mL] | FFC [3] | Particle Size D10 [1, 7] [μm] | Particle Size D50 [1, 7] [μm] | Particle Size D90 [1, 7] [μm] | True Density [4] [g/mL] | bulk density [5] | FFC [6]
1 | O=C1O[C@H]([C@@H](O)CO)C(O)=C1O [Ascorbic Acid] | 217 | 0.896 | 4.67 |  |  |  |  |  | 
2 | CC(=O)Nc1ccc(O)cc1 [Micronized APAP, micronized acetaminophen] |  | 0.206 |  | 2 | 10 | 37 | 1.29 | about 0.2 g/mL | about 2
3 | CC(C)Cc1ccc(C(C)C(=O)O)cc1 (centres unmarked) [Ibuprofen 50] | 58 |  |  |  |  |  |  |  | 
